The results in this text go back to patent US10836725B2, “Modulators of the integrated stress pathway” (Calico Life Sciences LLC, priority 2016, dated 2020).

The assay has as its system ATF4 luciferase reporter. In words: ATF4-Luc assay in HEK293T cells carrying the ATF4 luciferase reporter (in vitro model of VWMD). To be noted: Homo sapiens, HEK-293T, 1 μg/mL tunicamycin, 7 hours, luminescence (One Glo). It counts as cell-based, human. As for the experimental part: In order to test exemplary compounds of the invention in a cellular context, a stable VWMD cell line was first constructed. The ATF4 reporter was prepared by fusing the human full-length ATF4 5′-UTR (NCBI Accession No. BC022088.2) in front of the firefly luciferase (FLuc) coding sequence lacking the initiator methionine as described in Sidrauski et al (eLife 2013). The construct was used to produce recombinant retroviruses using standard methods and the resulting viral supernatant was used to transduce HEK293T cells, which were then subsequently selected with puromycin to generate a stable cell line.
HEK293T cells carrying the ATF4 luciferase reporter were plated on polylysine coated 384-well plates (Greiner Bio-one) at 30,000 cells per well. Cells were treated the next day with 1 μg/mL tunicamycin and 200 nM of a compound of Formula (I) for 7 hours. Luminescence was measured using One Glo (Promega) as specified by the manufacturer. Cells were maintained in DMEM with L-glutamine supplemented with 10% heat-inactivated FBS (Gibco) and Antibiotic-Antimycotic solution (Gibco).
Table 2 below summarizes the EC50 data obtained using the ATF4-Luc assay for exemplary compounds of the invention.
For orientation: A reporter such as luciferase makes a cellular process visible.
Regarding `O=C(COc1ccc(Cl)c(F)c1)NC12CCC(C(=O)NCc3ccc(F)cc3)(CC1)C(O)C2` (stereo not drawn) [Compound 130, 4-[2-(4-chloro-3-fluorophenoxy)acetamido]-N-[(4-fluorophenyl)methyl]-2-hydroxybicyclo[2.2.2]octane-1-carboxamide], the EC50 was less than 250 nM.
`O=C(COc1ccc(Cl)c(F)c1)NC12CCC(C(=O)NCc3cccc(Cl)c3)(CC1)C(O)C2` (stereo not drawn) [Compound 131, 4-[2-(4-chloro-3-fluorophenoxy)acetamido]-N-[(3-chlorophenyl)methyl]-2-hydroxybicyclo[2.2.2]octane-1-carboxamide]: the EC50 is 250 to 500 nM.
Take `O=C(COc1ccc(Cl)c(F)c1)NC12CCC(C(=O)NCc3ccc(Cl)cc3)(CC1)C(O)C2` (stereo not drawn) [Compound 132, 4-[2-(4-chloro-3-fluorophenoxy)acetamido]-N-[(4-chlorophenyl)methyl]-2-hydroxybicyclo[2.2.2]octane-1-carboxamide]: the EC50 was less than 250 nM.
On to `O=C(COc1ccc(Cl)c(F)c1)NC12CCC(C(=O)NCc3ccc(OC(F)(F)F)cc3)(CC1)C(O)C2` (stereo not drawn) [Compound 133, 4-[2-(4-chloro-3-fluorophenoxy)acetamido]-2-hydroxy-N-{[4-(trifluoromethoxy)phenyl]methyl}bicyclo[2.2.2]octane-1-carboxamide], for which the EC50 was less than 250 nM.
As to `CN(C)c1ccc(CNC(=O)C23CCC(NC(=O)COc4ccc(Cl)c(F)c4)(CC2)CC3O)cc1` (stereo not drawn) [Compound 134, 4-[2-(4-chloro-3-fluorophenoxy)acetamido]-N-{[4-(dimethylamino)phenyl]methyl}-2-hydroxybicyclo[2.2.2]octane-1-carboxamide], the EC50 is less than 250 nM.
For `O=C(COc1ccc(Cl)c(F)c1)NC12CCC(C(=O)NCc3cccc(C(F)(F)F)c3)(CC1)C(O)C2` (stereo not drawn) [Compound 135, 4-[2-(4-chloro-3-fluorophenoxy)acetamido]-2-hydroxy-N-{[3-(trifluoromethyl)phenyl]methyl}bicyclo[2.2.2]octane-1-carboxamide], the EC50 was less than 250 nM.
As to `O=C(COc1ccc(Cl)c(F)c1)NC12CCC(C(=O)NCc3cccc(OC(F)(F)F)c3)(CC1)C(O)C2` (stereo not drawn) [Compound 136, 4-[2-(4-chloro-3-fluorophenoxy)acetamido]-2-hydroxy-N-{[3-(trifluoromethoxy)phenyl]methyl}bicyclo[2.2.2]octane-1-carboxamide], the EC50 was 500 to 1000 nM.
`CC(C)(C)c1ccc(CNC(=O)C23CCC(NC(=O)COc4ccc(Cl)c(F)c4)(CC2)CC3O)cc1` (stereo not drawn) [Compound 137, N-[(4-tert-butylphenyl)methyl]-4-[2-(4-chloro-3-fluorophenoxy)acetamido]-2-hydroxybicyclo[2.2.2]octane-1-carboxamide]: the EC50 lay within 500 to 1000 nM.
For `O=C(COc1ccc(Cl)c(F)c1)NC12CCC(C(=O)NCCc3ccc(C(F)(F)F)cc3)(CC1)C(O)C2` (stereo not drawn) [Compound 138, 4-[2-(4-chloro-3-fluorophenoxy)acetamido]-2-hydroxy-N-{2-[4-(trifluoromethyl)phenyl]ethyl}bicyclo[2.2.2]octane-1-carboxamide], the EC50 was less than 250 nM.
As to `O=C(COc1ccc(Cl)c(F)c1)NC12CCC(C(=O)NCc3ccccn3)(CC1)C(O)C2` (stereo not drawn) [Compound 139], the EC50 was in the range of 1000 to 2000 nM.
Take `CC(NC(=O)C12CCC(NC(=O)COc3ccc(Cl)c(F)c3)(CC1)CC2O)c1cccnc1` (stereo not drawn) [Compound 140, 4-[2-(4-chloro-3-fluorophenoxy)acetamido]-2-hydroxy-N-[1-(pyridin-3-yl)ethyl]bicyclo[2.2.2]octane-1-carboxamide]: the EC50 is greater than 2000 nM.
As to `N#Cc1ccc(CNC(=O)C23CCC(NC(=O)COc4ccc(Cl)c(F)c4)(CC2)CC3O)nc1` (stereo not drawn) [Compound 141, 4-[2-(4-chloro-3-fluorophenoxy)acetamido]-N-[(5-cyanopyridin-2-yl)methyl]-2-hydroxybicyclo[2.2.2]octane-1-carboxamide], the EC50 was less than 250 nM.

Usually EC50 stands for the midpoint of the concentration-response curve.
